Data set [1] concerns MOLT-4. In words: Antiproliferative activity against human MOLT-4 cells assessed as cell growth inhibition measured after 48 hrs by SRB assay. It is filed as functional, cell-based. The following applies: MOLT-4, 48 h.
Data set [2] relates to SK-MEL-5. Nature of the data set: Antiproliferative activity against human SK-MEL-5 cells assessed as cell growth inhibition measured after 48 hrs by SRB assay. It is filed as functional, cell-based. To be noted: SK-MEL-5, 48 h. Background: Sulforhodamine B stains cellular protein and so reports cell mass.
Data set [3] has as its system OVCAR-4. In words: Antiproliferative activity against human OVCAR-4 cells assessed as cell growth inhibition measured after 48 hrs by SRB assay. In kind it is functional, cell-based. The following applies: OVCAR-4, 48 h.
The subject of data set [4] is UO-31. Nature of the data set: Antiproliferative activity against human UO-31 cells assessed as cell growth inhibition measured after 48 hrs by SRB assay. It is filed as functional, cell-based. The following applies: UO-31, 48 h.
In data set [5] the test system is MDA-MB-468. Nature of the data set: Antiproliferative activity against human MDA-MB-468 cells assessed as cell growth inhibition measured after 48 hrs by SRB assay. It is filed as functional, cell-based. To be noted: MDA-MB-468, 48 h.
For data set [6], the system named is NCI-H522. In words: Antiproliferative activity against human NCI-H522 cells assessed as cell growth inhibition at 10 uM measured after 48 hrs by SRB assay relative to control. In kind it is functional.
Data set [7] deals with U-251. In words: Antiproliferative activity against human U-251 cells assessed as cell growth inhibition at 10 uM measured after 48 hrs by SRB assay relative to control. In kind it is functional.
Data set [8] deals with MDA-MB-468. Nature of the data set: Antiproliferative activity against human MDA-MB-468 cells assessed as cell growth inhibition at 10 uM measured after 48 hrs by SRB assay relative to control. In kind it is functional.
A short description of data set [9]: Cytotoxicity against human WI-38 cells assessed as cell growth inhibition at 10 uM measured after 48 hrs by SRB assay relative to control. It is filed as cell-based.
The target in data set [10] is Receptor tyrosine-protein kinase erbB-2 (Homo sapiens) (UniProt P04626). In words: Inhibition of ErbB2 (unknown origin) at 10 uM incubated for 40 mins in presence of Mg/ATP mix by [gamma p33]-ATP based scintillation counting method relative to control.
Data set [11] addresses Mitogen-activated protein kinase 10 (Homo sapiens, UniProt P53779). In words: Inhibition of JNK3 (unknown origin) at 10 uM incubated for 40 mins in presence of Mg/ATP mix by [gamma p33]-ATP based scintillation counting method relative to control.
Data set [12] addresses Tyrosine-protein kinase JAK3 (Homo sapiens, UniProt P52333). In words: Inhibition of JAK3 (unknown origin) incubated for 40 mins in presence of Mg/ATP mix by [gamma p33]-ATP based scintillation counting method.
The species entered for data set [13] is Homo sapiens. Nature of the data set: Selectivity ratio of IC50 for inhibition of EGFR (unknown origin) to IC50 for inhibition of ErbB4 (unknown origin). The following applies: dose 10.0 µM, time 40.0 min.
Data set [14] deals with Cytochrome P450 2D6 (Homo sapiens, UniProt P10635). In words: Inhibition of CYP2D6 (unknown origin) using EOMCC as a substrate incubated for 20 mins by fluorescence based analysis. It is filed as ADME.
Data set [15] deals with Cytochrome P450 3A4 (Homo sapiens, UniProt P08684). Nature of the data set: Inhibition of CYP3A4 (unknown origin) using BOMCC as a substrate incubated for 20 mins by fluorescence based analysis. It is filed as ADME.
Data set [16] has as its target Serine/threonine-protein kinase B-raf (Homo sapiens, UniProt P15056, V600E). Nature of the data set: Inhibition of BRAF V600E mutant (unknown origin) incubated for 40 mins in presence of Mg/ATP mix by [gamma p33]-ATP based scintillation counting method.

Chain of Cytochrome P450 3A4 (P08684 whole entry): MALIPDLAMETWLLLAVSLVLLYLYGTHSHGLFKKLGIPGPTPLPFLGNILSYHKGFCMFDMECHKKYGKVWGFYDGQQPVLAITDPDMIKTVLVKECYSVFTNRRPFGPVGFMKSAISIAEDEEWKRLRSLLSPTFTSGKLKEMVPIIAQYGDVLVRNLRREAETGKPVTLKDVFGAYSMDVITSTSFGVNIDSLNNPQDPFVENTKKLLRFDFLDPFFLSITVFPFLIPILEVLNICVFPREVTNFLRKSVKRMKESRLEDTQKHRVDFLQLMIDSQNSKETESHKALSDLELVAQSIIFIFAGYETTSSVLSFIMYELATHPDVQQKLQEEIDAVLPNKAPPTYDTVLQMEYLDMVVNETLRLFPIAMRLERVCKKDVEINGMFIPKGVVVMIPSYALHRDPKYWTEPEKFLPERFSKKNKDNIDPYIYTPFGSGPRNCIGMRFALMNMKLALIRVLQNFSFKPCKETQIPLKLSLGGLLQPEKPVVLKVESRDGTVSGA
Chain of Mitogen-activated protein kinase 10 (P53779 whole entry): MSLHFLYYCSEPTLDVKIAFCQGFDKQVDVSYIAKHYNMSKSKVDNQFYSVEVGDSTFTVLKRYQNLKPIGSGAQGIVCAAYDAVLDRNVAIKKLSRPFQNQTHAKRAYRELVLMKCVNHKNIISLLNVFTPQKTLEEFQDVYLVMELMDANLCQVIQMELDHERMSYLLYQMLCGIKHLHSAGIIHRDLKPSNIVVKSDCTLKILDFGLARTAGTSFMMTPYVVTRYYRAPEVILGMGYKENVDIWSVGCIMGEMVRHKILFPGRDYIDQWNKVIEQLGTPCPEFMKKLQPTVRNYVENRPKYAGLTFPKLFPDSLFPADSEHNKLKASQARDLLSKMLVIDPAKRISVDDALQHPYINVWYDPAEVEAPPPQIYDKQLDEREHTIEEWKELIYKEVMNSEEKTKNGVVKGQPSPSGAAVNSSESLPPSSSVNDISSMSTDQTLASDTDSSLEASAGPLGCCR
Chain of Tyrosine-protein kinase JAK3 (P52333 whole entry): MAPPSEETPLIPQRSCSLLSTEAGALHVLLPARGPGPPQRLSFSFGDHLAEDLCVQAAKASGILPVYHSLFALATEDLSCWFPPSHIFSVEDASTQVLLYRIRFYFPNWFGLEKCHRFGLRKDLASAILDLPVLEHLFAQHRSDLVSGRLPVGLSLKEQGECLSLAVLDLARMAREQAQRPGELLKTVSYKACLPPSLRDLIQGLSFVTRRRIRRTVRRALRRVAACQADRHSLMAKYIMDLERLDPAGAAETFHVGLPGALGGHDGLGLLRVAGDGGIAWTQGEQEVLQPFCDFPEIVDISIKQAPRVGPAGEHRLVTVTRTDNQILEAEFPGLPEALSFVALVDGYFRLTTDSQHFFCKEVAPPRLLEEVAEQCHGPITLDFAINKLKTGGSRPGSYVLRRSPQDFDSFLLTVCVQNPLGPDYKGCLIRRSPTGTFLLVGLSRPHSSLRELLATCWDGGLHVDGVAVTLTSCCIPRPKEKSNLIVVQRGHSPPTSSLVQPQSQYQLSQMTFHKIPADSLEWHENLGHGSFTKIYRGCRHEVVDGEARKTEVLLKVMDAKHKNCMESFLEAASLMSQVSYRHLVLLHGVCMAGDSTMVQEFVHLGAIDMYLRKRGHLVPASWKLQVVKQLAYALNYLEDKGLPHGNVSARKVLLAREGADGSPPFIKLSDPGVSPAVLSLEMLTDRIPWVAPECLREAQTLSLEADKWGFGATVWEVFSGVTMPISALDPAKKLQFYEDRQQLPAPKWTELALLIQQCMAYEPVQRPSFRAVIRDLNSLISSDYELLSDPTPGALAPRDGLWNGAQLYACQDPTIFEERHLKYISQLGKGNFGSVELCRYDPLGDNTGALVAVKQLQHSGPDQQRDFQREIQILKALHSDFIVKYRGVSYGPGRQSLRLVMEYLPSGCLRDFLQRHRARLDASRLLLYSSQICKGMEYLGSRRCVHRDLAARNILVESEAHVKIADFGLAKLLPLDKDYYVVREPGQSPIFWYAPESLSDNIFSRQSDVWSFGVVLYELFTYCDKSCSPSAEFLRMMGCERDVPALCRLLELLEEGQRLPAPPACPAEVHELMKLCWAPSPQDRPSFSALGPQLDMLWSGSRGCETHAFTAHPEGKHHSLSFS
Chain of Cytochrome P450 2D6 (P10635 whole entry): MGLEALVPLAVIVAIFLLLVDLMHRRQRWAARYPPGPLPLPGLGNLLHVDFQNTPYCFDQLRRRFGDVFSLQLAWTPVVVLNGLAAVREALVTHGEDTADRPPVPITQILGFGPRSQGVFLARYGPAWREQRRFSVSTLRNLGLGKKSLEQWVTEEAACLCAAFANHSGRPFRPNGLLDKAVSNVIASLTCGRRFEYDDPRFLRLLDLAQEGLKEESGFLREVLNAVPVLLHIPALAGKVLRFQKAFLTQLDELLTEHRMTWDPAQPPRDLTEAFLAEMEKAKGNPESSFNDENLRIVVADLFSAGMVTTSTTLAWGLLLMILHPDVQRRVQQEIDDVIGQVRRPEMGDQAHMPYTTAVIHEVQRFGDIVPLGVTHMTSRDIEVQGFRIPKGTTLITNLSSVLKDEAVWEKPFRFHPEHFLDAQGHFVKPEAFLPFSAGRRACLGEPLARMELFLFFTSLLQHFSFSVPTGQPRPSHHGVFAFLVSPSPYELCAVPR
Chain of Serine/threonine-protein kinase B-raf (P15056 2-766 V600E limits assumed): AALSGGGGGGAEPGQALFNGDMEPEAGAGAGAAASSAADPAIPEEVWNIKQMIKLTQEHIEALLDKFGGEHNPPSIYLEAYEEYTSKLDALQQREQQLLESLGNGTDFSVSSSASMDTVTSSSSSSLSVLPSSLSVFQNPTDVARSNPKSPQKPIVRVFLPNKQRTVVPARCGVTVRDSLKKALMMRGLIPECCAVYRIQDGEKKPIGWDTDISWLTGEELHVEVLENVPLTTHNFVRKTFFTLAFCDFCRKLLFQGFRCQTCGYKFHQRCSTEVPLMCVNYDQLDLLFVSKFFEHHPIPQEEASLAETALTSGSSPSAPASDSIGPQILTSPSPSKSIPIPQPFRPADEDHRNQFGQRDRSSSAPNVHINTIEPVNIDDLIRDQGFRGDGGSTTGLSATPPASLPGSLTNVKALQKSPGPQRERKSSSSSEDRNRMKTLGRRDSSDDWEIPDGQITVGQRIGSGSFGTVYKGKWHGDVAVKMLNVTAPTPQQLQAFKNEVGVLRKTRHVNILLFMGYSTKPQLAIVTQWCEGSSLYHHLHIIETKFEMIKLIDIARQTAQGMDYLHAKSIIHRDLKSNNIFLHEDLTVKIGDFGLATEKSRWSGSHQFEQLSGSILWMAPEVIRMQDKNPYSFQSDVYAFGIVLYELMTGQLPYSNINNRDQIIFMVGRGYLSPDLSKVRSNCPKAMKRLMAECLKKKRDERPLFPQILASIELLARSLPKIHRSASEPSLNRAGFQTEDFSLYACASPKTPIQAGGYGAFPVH
Chain of Receptor tyrosine-protein kinase erbB-2 (Homo sapiens) (P04626 whole entry): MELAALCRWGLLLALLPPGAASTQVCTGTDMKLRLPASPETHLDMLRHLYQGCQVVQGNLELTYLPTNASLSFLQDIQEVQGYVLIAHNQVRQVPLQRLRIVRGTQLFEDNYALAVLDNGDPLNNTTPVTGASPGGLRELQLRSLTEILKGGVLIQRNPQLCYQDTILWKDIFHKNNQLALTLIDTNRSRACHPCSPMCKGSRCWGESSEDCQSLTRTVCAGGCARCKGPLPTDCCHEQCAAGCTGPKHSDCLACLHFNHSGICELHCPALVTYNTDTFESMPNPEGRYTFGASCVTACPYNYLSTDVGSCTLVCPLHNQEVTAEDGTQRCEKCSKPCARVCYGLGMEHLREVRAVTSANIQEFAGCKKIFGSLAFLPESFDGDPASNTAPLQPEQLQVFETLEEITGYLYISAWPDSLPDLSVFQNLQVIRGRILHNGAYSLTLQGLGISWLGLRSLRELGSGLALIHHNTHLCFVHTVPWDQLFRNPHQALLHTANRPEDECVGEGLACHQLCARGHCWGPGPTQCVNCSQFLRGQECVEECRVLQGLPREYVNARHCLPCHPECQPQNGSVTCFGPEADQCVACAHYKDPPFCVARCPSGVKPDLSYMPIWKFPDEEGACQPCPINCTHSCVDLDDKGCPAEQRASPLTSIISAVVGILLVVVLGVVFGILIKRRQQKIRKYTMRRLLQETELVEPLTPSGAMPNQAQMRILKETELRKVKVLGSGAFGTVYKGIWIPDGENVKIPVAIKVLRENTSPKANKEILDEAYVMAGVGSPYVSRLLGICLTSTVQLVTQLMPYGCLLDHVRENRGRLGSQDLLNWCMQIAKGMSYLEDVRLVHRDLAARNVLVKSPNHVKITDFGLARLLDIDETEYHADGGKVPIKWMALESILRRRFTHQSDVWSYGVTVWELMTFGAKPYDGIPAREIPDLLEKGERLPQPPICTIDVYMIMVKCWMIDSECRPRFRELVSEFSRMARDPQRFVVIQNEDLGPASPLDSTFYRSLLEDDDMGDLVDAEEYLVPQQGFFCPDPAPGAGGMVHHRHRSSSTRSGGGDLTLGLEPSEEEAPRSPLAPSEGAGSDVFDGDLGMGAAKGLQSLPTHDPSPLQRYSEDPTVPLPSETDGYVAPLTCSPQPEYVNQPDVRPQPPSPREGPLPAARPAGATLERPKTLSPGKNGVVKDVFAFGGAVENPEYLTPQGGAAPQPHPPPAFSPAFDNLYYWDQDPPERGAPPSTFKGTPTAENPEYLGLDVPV

For orientation: IC50 means the midpoint of a concentration-inhibition curve. The term inhibition denotes the drop in the measured response relative to a control, in per cent. With `CS(=O)(=O)c1nccc(-c2c(-c3cccc(OCc4ccccc4)c3)nc3sccn23)n1`, the IC50 in data set [1] was 1020 nM; in data set [2], 510 nM; in data set [3] it was 3.78 µM; in data set [4] it was 1550 nM; in data set [5], 1040 nM; in [12], 8.35 µM. In addition, the IC50 is more than 90 µM in data set [14], 17.8 µM in data set [15] and 13.2 µM in data set [16]. Also, the inhibition at 10 µM in [6] is 94.1%; in [7] it was 10.9%; in data set [8] it was 165%. The inhibition at 48 h, 10 µM in data set [9] came out at 56.4%. Further, the inhibition came out at 2.75% in data set [10] and 66% in [11]. Moreover, the Ratio IC50 in data set [13] came out at 651.

Source of the values: ChEMBL document CHEMBL4831500, “Discovery of first-in-class imidazothiazole-based potent and selective ErbB4 (HER4) kinase inhibitors” (Eur J Med Chem, 2021).
